Laboratory results: ChEMBL document CHEMBL4184323, “Structure-Guided Design, Synthesis, and Characterization of Next-Generation Meprin β Inhibitors” (J Med Chem, 2018)

Tests used:
BMP1 = biological target: T1, BMP1 (Homo sapiens, UniProt P13497); experiment: Inhibition of human BMP1 expressed in Escherichia coli assessed as residual activity using Abz-YVADAPK(Dnp)G-OH as substrate at 200 uM by fluorescence assay relative to control; details: probe Abz-YVADAPK(Dnp)G-OH, read-out: Activity
T1 sequence (P13497 whole entry): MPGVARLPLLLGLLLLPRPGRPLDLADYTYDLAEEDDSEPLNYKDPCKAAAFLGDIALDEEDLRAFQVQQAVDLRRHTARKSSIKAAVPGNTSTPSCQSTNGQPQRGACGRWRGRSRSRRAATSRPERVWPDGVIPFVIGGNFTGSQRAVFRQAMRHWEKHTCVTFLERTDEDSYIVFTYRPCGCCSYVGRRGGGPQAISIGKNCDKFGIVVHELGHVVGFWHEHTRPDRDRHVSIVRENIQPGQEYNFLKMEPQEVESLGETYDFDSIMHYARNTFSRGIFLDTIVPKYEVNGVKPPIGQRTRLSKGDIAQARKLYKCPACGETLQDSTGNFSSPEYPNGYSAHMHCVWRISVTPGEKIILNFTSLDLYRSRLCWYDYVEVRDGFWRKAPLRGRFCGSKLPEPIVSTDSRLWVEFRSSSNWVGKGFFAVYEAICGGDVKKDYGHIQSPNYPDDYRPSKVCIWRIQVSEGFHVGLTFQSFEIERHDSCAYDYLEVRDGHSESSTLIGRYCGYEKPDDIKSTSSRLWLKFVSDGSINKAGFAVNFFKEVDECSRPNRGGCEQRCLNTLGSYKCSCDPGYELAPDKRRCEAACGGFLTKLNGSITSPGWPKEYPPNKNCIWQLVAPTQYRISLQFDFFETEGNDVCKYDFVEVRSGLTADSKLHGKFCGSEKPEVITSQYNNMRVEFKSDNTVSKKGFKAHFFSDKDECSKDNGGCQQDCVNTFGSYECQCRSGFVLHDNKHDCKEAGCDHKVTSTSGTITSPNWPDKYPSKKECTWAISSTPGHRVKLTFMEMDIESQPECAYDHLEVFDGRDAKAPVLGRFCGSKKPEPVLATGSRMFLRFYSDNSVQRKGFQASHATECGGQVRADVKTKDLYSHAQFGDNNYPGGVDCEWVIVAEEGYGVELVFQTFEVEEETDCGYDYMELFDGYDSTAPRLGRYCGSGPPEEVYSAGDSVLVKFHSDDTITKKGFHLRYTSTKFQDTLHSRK

meprin alpha = biological target: T2, meprin alpha (Homo sapiens, UniProt Q16819); experiment: Inhibition of recombinant human meprin alpha expressed in insect cells assessed as residual activity using Abz-YVADAPK(Dnp)G-OH as substrate at 200 uM by fluorescence assay relative to control; details: probe Abz-YVADAPK(Dnp)G-OH, read-out: Activity
T2 sequence (Q16819 whole entry): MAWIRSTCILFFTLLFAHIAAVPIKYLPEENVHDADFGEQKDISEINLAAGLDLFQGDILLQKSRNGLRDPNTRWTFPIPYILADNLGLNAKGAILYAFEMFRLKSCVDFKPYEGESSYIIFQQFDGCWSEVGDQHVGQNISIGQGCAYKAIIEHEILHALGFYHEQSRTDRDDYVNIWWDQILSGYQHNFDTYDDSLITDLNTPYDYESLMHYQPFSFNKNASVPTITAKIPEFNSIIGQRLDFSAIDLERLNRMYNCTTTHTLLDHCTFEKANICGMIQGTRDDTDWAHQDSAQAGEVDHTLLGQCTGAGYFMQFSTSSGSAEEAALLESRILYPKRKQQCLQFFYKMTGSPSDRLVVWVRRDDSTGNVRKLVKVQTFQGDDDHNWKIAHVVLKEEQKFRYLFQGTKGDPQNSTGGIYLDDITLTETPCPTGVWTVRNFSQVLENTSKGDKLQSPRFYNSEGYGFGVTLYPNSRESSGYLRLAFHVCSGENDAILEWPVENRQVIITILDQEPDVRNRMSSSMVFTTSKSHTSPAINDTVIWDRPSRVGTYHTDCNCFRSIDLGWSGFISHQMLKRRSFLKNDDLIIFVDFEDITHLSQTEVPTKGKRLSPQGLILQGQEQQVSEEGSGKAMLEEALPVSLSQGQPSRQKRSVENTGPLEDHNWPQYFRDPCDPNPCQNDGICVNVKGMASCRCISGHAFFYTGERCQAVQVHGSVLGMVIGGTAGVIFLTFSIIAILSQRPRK

[1] = Tmax in Sprague-Dawley rat at 5 mg/kg, po by LC-MS analysis; assay type: ADME, organism-based; details: in vivo
Rattus norvegicus = experiment: Volume of distribution in Sprague-Dawley rat at 5 mg/kg, po by LC-MS analysis; assay type: ADME, organism-based; details: in vivo
[2] = Drug absorption in Sprague-Dawley rat at 10 mg/kg, ip by LC-MS analysis; assay type: ADME, organism-based; details: in vivo, read-out: Fabs
[3] = Tmax in Sprague-Dawley rat at 10 mg/kg, ip by LC-MS analysis; assay type: ADME, organism-based; details: in vivo
[4] = Volume of distribution at steady state in Sprague-Dawley rat at 6 mg/kg, iv by LC-MS analysis; assay type: ADME, organism-based; details: in vivo, read-out: Vdss
ADAM10 = biological target: T3, ADAM10 (Homo sapiens, UniProt O14672); experiment: Inhibition of human ADAM10 assessed as residual activity using Abz-LANAVRSSSR-(DapDnp)-AR-NH2 as substrate at 200 uM by fluorescence assay relative to control; details: human ADAM10 enzyme, probe Abz-LANAVRSSSR-(DapDnp)-AR-NH2, read-out: Activity
T3 sequence (O14672 whole entry): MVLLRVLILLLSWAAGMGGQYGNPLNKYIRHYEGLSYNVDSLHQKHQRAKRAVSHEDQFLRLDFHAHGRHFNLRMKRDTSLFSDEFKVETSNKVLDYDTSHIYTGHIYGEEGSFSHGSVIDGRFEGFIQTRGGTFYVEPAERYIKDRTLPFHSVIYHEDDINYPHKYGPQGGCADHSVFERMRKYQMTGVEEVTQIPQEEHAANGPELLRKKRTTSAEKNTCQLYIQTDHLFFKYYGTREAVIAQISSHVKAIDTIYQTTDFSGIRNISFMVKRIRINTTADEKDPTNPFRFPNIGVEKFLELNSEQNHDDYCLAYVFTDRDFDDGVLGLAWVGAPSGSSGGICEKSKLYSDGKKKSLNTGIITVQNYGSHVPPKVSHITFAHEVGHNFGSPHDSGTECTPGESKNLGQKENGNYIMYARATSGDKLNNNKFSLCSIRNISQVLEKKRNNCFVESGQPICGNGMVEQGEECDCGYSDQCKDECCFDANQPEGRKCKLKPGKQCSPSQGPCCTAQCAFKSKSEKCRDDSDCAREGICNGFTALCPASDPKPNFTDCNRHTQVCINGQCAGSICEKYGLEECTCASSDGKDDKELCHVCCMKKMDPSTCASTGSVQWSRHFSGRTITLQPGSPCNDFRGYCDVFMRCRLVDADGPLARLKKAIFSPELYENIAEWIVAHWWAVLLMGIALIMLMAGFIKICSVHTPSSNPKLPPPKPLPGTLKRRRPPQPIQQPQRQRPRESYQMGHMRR

SH-SY5Y = experiment: Cytotoxicity in human SH-SY5Y cells assessed as cell viability at 100 uM after 24 hrs by CytoTox-ONE-based assay relative to control; assay type: functional; details: read-out: Activity

O=C(CN(Cc1cccc(C(=O)O)c1)Cc1cccc(C(=O)O)c1)NO
activity at 200 µM (BMP1): 87% | activity at 200 µM (meprin alpha): < 10% | Tmax [1]: 10.2 min | Vd (Rattus norvegicus): 0.073 L | Fa [2]: 84% | Tmax [3]: 7.2 min | Vd [4]: 0.42 L/kg | activity at 200 µM (ADAM10): 93% | viability at 100 µM (SH-SY5Y): 96%
